Test results taken from ChEMBL document CHEMBL1132859, “Role of the hydrophobic moiety of tumor promoters. Synthesis and activity of 2-alkylated benzolactams” (Bioorg Med Chem Lett, 2000).

Experiments:
[1] = target: Protein kinase C delta type (Homo sapiens, UniProt Q05655); assay: Binding affinity for human recombinant protein kinase C delta
HL-60 = assay: Compound was evaluated for its effective dose against HL-60 cells; type: functional; settings: Homo sapiens, read-out: ED50 (the source's name)

Sequence of Protein kinase C delta type (Q05655 whole entry): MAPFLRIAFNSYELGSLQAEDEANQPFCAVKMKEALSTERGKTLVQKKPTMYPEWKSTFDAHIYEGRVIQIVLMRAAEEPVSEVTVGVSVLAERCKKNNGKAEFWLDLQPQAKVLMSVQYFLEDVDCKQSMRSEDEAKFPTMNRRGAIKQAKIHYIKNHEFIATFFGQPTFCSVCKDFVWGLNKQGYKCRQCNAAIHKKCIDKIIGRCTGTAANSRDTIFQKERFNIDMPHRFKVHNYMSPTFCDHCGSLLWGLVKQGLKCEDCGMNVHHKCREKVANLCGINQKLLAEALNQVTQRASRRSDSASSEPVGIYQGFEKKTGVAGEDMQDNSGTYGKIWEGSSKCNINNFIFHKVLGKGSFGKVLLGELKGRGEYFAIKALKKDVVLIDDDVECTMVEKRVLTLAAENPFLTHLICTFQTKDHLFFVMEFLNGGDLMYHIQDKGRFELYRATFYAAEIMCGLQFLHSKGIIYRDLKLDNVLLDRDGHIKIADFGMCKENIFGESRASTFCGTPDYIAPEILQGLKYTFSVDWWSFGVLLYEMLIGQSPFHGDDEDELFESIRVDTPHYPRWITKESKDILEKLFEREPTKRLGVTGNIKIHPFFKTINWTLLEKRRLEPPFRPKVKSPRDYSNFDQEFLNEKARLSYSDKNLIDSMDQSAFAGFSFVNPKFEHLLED

| EC50 (HL-60) [nM] | SMILES | Ki [1] [nM] |
| --- | --- | --- |
|  | CCCCCCCCCC[C@H]1C(=O)N[C@H](CO)Cc2ccccc2N1C | 0.8 |
|  | CCCCCCCCCCCC[C@H]1C(=O)N[C@H](CO)Cc2ccccc2N1C | 0.8 |
|  | CCCCCCCCCCCCCC[C@H]1C(=O)N[C@H](CO)Cc2ccccc2N1C | 0.8 |
| 70 | CCCCCCCCCCCCCCCCCCCC[C@H]1C(=O)N[C@H](CO)Cc2ccccc2N1C | > 1000 |
